Patent US20240398818A1, “Cardiosafe Antidiabetic Therapy” (priority 2018, published 2024)

Test system: adult patients with type 2 diabetes mellitus and with increased or high or very high CV risk evidenced by a history of established macrovascular or renal …
Assay: Cardiovascular (Safety) and Renal Microvascular Outcome Trial (linagliptin versus placebo)
Format: in vivo
Details: for All-cause mortality, Hazard Ratio: linagliptin vs placebo
Protocol: The effect of linagliptin on cardiovascular risk in adult patients with type 2 diabetes mellitus and with increased or high or very high CV risk evidenced by a history of established macrovascular or renal disease was evaluated in a Cardiovascular and Renal Microvascular Outcome Trial, a multi-center, multi-national, randomized, double-blind parallel group trial. The trial compared the risk of experiencing a major adverse cardiovascular event (MACE) between linagliptin and placebo when these were added to and used concomitantly with standard of care treatments for diabetes and other cardiovascular risk factors. The trial was event driven and patients were followed until at least 611 primary outcome events accrued.
A total of 6979 patients were treated (linagliptin 5 mg=3494; placebo=3485) and followed for a median of 2.2 years (median time on treatment 1.9 years). Approximately 80% of the study population was Caucasian, 9% was Asian, and 6% was Black. The mean age was 66 years and 63% were male.
The trial population included 1211 (17.4%) patients ≥75 years of age and 4348 (62.3%) patients with renal impairment. Approximately 19% of the population had eGFR ≥45 to <60 mL/min/1.73 m2, 28% of the population had eGFR ≥30 to <45 mL/min/1.73 m2 and 15% had eGFR <30 mL/min/1.73 m2. Overall, the use of diabetes medications was balanced across treatment groups (metformin 54%, sulfonylurea 32%, and insulin 57%). The use of medications to reduce cardiovascular risk was also balanced (aspirin 62%, statins 72%, ACE inhibitors or ARBs 81%, beta blockers 60%, and calcium channel blockers 41%).
The primary endpoint in the Cardiovascular and Renal Microvascular Outcome Trial was the time to first occurrence of three point (3P) MACE. A major adverse cardiac event was defined as a cardiovascular death or a nonfatal myocardial infarction (MI) or a nonfatal stroke. The statistical analysis plan tested for non-inferiority for the occurrence of (3P) MACE. The secondary endpoint was a renal composite, defined as renal death or sustained end stage renal disease or sustained decrease of 40% or more in eGFR.
The microvascular endpoint was defined as the composite of renal death, sustained ESRD, sustained decrease of ≥50% in eGFR, albuminuria progression, use of retinal photocoagulation or intravitreal injections of an anti-VEGF therapy for diabetic retinopathy or vitreous hemorrhage or diabetes-related-blindness. The estimated hazard ratio for time to first occurrence for the composite microvascular endpoint was 0.86 (95% CI 0.78, 0.95) for linagliptin versus placebo; mainly driven by albuminuria progression.
People with type 2 diabetes (T2D) with concomitant chronic kidney disease (CKD) and cardiovascular (CV) disease are at increased risk for recurrent CV events and hypoglycemia. Treatment of these individuals is clinically challenging, where the evidence-base for safety and efficacy of glucose lowering drugs is scarce, in particular in GFR categories G3b (eGFR 30-44 ml/min/1.73 m2), G4 (eGFR <30) and G5 (eGFR <15). We analyzed baseline characteristics and effects on CV and kidney outcomes with the DPP-4 inhibitor linagliptin (LINA) vs. placebo (PBO), across GFR categories in the Cardiovascular and Renal Microvascular Outcome Trial. People with T2D and either i) UACR >30 mg/g with concomitant CV disease, or ii) eGFR <45 ml/min/1.73 m^2 regardless of UACR, or eGFR ≥45-75 mL/min/1.73 m^2 and UACR >200 mg/g, were randomized to LINA 5 mg or placebo (PBO) q.d. in a double-blind fashion. The primary outcome was first occurrence of CV death, non-fatal myocardial infarction, or non-fatal stroke (3P-MACE), with an adjudicated secondary composite outcome of ESKD, renal death, or sustained ≥40% decrease in eGFR from baseline. Other adjudicated outcomes included hospitalized heart failure (hHF) and the 3P-MACE components. Subgroup-effects across GFR categories (G≤2, G3a, G3b and G≥4) were also assessed. […]

[1] = LINA vs PBO, across all GFR categories
[2] = linagliptin relative to placebo, listed as linagliptin

Structure (SMILES): CC#CCn1c(N2CCC[C@@H](N)C2)nc2c1c(=O)n(Cc1nc(C)c3ccccc3n1)c(=O)n2C [Linagliptin, 1-[(4-methyl-quinazolin-2-yl)methyl]-3-methyl-7-(2-butyn-1-yl)-8-(3-(R)-amino-piperidin-1-yl)-xanthine]
- HbA1c (in words) [1]: reduced significantly
- risk for hypoglycemia (in words) [1]: without increased risk
- Progression of albuminuria category, patients with event / patients analysed (in vivo): 763/2162
- risk of HHF regardless of baseline renal function (in words) (in vivo): did not affect
- Hospitalization for heart failure, Hazard Ratio (linagliptin relative to placebo): 0.90
- Secondary renal composite, Hazard Ratio (linagliptin relative to placebo, listed as LINA): 1.04
- 3P-MACE, Hazard Ratio (linagliptin relative to placebo, listed as TRADJENTA): 1.02
- 3P-MACE, Hazard Ratio [2]: 1.02
- Secondary renal composite, Hazard Ratio [2]: 1.04
- albuminuria progression (normo- to micro-/macroalbuminuria, or micro- to macroalbuminuria), hazard ratio (linagliptin versus placebo): 0.86
- composite microvascular endpoint, time to first occurrence, hazard ratio (linagliptin versus placebo, mainly driven by albuminuria progression): 0.86
- All-cause mortality, Hazard Ratio: 0.98
- All-cause mortality, Hazard Ratio (listed as TRADJENTA): 0.98
- All-cause mortality, Hazard Ratio (listed as linagliptin): 0.98
- 3P-MACE, Incidence Rate per 1000 PY (median follow-up 2.2 years): 57.7 per 1000 PY
- 3P-MACE, Subjects (%) (median follow-up 2.2 years): (12.4) %
- All-cause mortality, Incidence Rate per 1000 PY (median follow-up 2.2 years): 46.9 per 1000 PY
- All-cause mortality, Subjects (%) (median follow-up 2.2 years): (10.5) %
- Hospitalization for heart failure, Incidence Rate per 1000 PY (median follow-up 2.2 years): 27.7 per 1000 PY
- Hospitalization for heart failure, Number of Subjects (median follow-up 2.2 years): 209
- Hospitalization for heart failure, Subjects (%) (median follow-up 2.2 years): (6.0) %
- Secondary renal composite (renal death, ESRD, 40% sustained decrease in eGFR), Number of Subjects (median follow-up 2.2 years): 327
- Secondary renal composite, Incidence Rate per 1000 PY (median follow-up 2.2 years): 48.9 per 1000 PY
- Composite of first event of CV death, non-fatal MI, or non-fatal stroke (3P-MACE), Number of Subjects (median follow-up 2.2 years, added to standard of care): 434
- All-cause mortality, Subjects (%) (median follow-up 2.2 years, listed as TRADJENTA): (10.5%)
- Hospitalization for heart failure, Subjects (%) (median follow-up 2.2 years, listed as linagliptin): 6.0%
